Source: PubChem BioAssay (NCI)
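Method: 48-hour compound exposure of cells in 96-well plates, five concentrations, linear interpolation of endpoints. At the GI50, growth is halved. TGI denotes the concentration required for complete inhibition of growth.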

Key:
Assay in all cases: NCI-60 cell line screen, 48 h
MDA-MB-231 breast = tested on: MDA-MB-231 breast
RXF 393 renal = tested on: RXF 393 renal
NCI/ADR-RES ovarian = tested on: NCI/ADR-RES ovarian
DU-145 prostate = tested on: DU-145 prostate
M14 melanoma = tested on: M14 melanoma
NCI-H522 lung = tested on: NCI-H522 lung
SF-539 CNS = tested on: SF-539 CNS
SF-268 CNS = tested on: SF-268 CNS
786-0 renal = tested on: 786-0 renal
EKVX NSCLC = tested on: EKVX NSCLC

## O=C(Nc1cccc(Cl)c1)Nc1cc(C(F)(F)F)ccc1Cl
MDA-MB-231 breast
  GI50: 1.97 µM
  TGI: 4.23 µM
RXF 393 renal
  GI50: 1120 nM
  TGI: 3.95 µM
NCI/ADR-RES ovarian
  GI50: 2640 nM
  TGI: 7.12 µM
DU-145 prostate
  GI50: 2950 nM
  TGI: 10.2 µM
M14 melanoma
  GI50: 2970 nM
  TGI: 9.68 µM
NCI-H522 lung
  GI50: 2140 nM
  TGI: 7.7 µM
SF-539 CNS
  GI50: 3.18 µM
  TGI: 11.4 µM
SF-268 CNS
  GI50: 3.55 µM
  TGI: 11.7 µM
786-0 renal
  GI50: 2860 nM
  TGI: 12 µM

## CCCCCCCN(CCCCCCC)C(=N)c1ccc(OC)c2ccccc12
RXF 393 renal
  GI50: 1300 nM
  TGI: 3.01 µM
NCI/ADR-RES ovarian
  GI50: 1460 nM
  TGI: 3.05 µM
EKVX NSCLC
  GI50: 1370 nM
  TGI: 2.85 µM
DU-145 prostate
  GI50: 1380 nM
  TGI: 2.76 µM
M14 melanoma
  GI50: 1530 nM
  TGI: 2.95 µM
NCI-H522 lung
  GI50: 1250 nM
  TGI: 2.73 µM
SF-268 CNS
  GI50: 1.49 µM
  TGI: 3.16 µM
786-0 renal
  GI50: 1310 nM
  TGI: 2.95 µM

## Cc1ccccc1C1SCc2nc3ccccc3n21 (configuration not stated)
RXF 393 renal
  TGI: > 100 µM
EKVX NSCLC
  TGI: > 100 µM
NCI-H522 lung
  TGI: > 100 µM
SF-539 CNS
  TGI: > 100 µM
SF-268 CNS
  TGI: > 100 µM
786-0 renal
  TGI: > 100 µM

## Clc1cc2ns[s+]c2cc1Cl
RXF 393 renal
  TGI: > 100 µM
EKVX NSCLC
  TGI: > 100 µM
M14 melanoma
  TGI: > 100 µM
NCI-H522 lung
  TGI: > 80.5 µM
SF-539 CNS
  TGI: > 100 µM
SF-268 CNS
  TGI: > 100 µM
786-0 renal
  TGI: > 100 µM

## C=C1[C@H](O)C[C@@H](C(C)C(O)CC=C(C)C)[C@@H](O)[C@@H]2C(C)=CC[C@@H]12 (some centres not stated)
MDA-MB-231 breast
  GI50: > 100 µM
  TGI: > 100 µM
NCI/ADR-RES ovarian
  GI50: > 100000 nM
  TGI: > 100 µM
EKVX NSCLC
  GI50: > 100000 nM
  TGI: > 100 µM
DU-145 prostate
  GI50: > 100000 nM
  TGI: > 100 µM
M14 melanoma
  GI50: > 100000 nM
  TGI: > 100 µM
NCI-H522 lung
  GI50: 30300 nM
  TGI: 86.4 µM
SF-539 CNS
  GI50: > 100 µM
  TGI: > 100 µM
SF-268 CNS
  GI50: > 100 µM
  TGI: > 100 µM
786-0 renal
  GI50: > 100000 nM
  TGI: > 100 µM

## OCC1OC(n2cnc3cc(Cl)c(Cl)cc32)C(O)C1O (configuration not stated)
MDA-MB-231 breast
  GI50: 21.2 µM
  TGI: 60.1 µM
NCI/ADR-RES ovarian
  GI50: 18800 nM
  TGI: 56.6 µM
EKVX NSCLC
  GI50: 20800 nM
  TGI: 50.8 µM
DU-145 prostate
  GI50: 17200 nM
  TGI: > 61.2 µM
M14 melanoma
  GI50: 9360 nM
  TGI: 32.5 µM
NCI-H522 lung
  GI50: 16300 nM
  TGI: 54.4 µM
SF-539 CNS
  GI50: 19.9 µM
  TGI: 44.7 µM
SF-268 CNS
  GI50: 30.7 µM
  TGI: > 87.9 µM
786-0 renal
  GI50: 23600 nM
  TGI: > 68.3 µM

## NC1=NN(c2ccccc2)C(=O)C1/C(=N\NC(=O)c1cc2ccccc2cc1O)C(=O)Nc1ccc(Cl)c(Cl)c1 (configuration not stated)
RXF 393 renal
  TGI: > 100 µM
EKVX NSCLC
  TGI: 63.6 µM
M14 melanoma
  TGI: 72.5 µM
NCI-H522 lung
  TGI: 37.2 µM
SF-539 CNS
  TGI: > 100 µM
SF-268 CNS
  TGI: > 100 µM
786-0 renal
  TGI: > 100 µM

## COc1ccc(NC(=O)CC2SC(=Nc3ccc(Cl)cc3C)NC2=O)c([N+](=O)[O-])c1 (configuration not stated)
RXF 393 renal
  TGI: > 100 µM
EKVX NSCLC
  TGI: > 100 µM
M14 melanoma
  TGI: > 100 µM
NCI-H522 lung
  TGI: > 100 µM
SF-539 CNS
  TGI: > 100 µM
SF-268 CNS
  TGI: > 100 µM
786-0 renal
  TGI: > 100 µM

## CC(C)(C)c1cc([Si](C)(C)C)c(C#N)c([Si](C)(C)C)c1
RXF 393 renal
  TGI: > 100 µM
EKVX NSCLC
  TGI: > 100 µM
M14 melanoma
  TGI: > 100 µM
NCI-H522 lung
  TGI: > 100 µM
SF-539 CNS
  TGI: > 100 µM
SF-268 CNS
  TGI: > 100 µM
786-0 renal
  TGI: > 100 µM

## COc1cc(OC)c(OC)cc1/C=C/c1ccc2ccccc2n1
MDA-MB-231 breast
  TGI: > 10 µM
NCI/ADR-RES ovarian
  TGI: > 10 µM
DU-145 prostate
  TGI: > 10 µM
M14 melanoma
  TGI: > 10 µM
NCI-H522 lung
  TGI: > 10 µM
SF-539 CNS
  TGI: > 10 µM
SF-268 CNS
  TGI: > 10 µM
786-0 renal
  TGI: > 10 µM

## COc1ccc(C2[C@@H](Cl)C(=O)N2c2ccc(OC)cc2)cc1 (some centres not stated)
RXF 393 renal
  TGI: > 100 µM
EKVX NSCLC
  TGI: > 100 µM
NCI-H522 lung
  TGI: > 100 µM
SF-539 CNS
  TGI: 49.8 µM
SF-268 CNS
  TGI: > 100 µM
786-0 renal
  TGI: > 100 µM

## CC1O[C@@H]2CCCCC(=O)[C@]2(C)[C@H]1C (some centres not stated)
RXF 393 renal
  TGI: > 100 µM
EKVX NSCLC
  TGI: > 100 µM
M14 melanoma
  TGI: > 100 µM
786-0 renal
  TGI: > 100 µM

## CCN(CC(O)COc1ccc2c(c1)[n+]([O-])nc(N)[n+]2[O-])C(C)=O (configuration not stated)
MDA-MB-231 breast
  TGI: > 100 µM
NCI/ADR-RES ovarian
  TGI: > 100 µM
EKVX NSCLC
  TGI: > 100 µM
DU-145 prostate
  TGI: > 100 µM
M14 melanoma
  TGI: > 100 µM
NCI-H522 lung
  TGI: > 100 µM
SF-539 CNS
  TGI: > 100 µM
SF-268 CNS
  TGI: > 100 µM
786-0 renal
  TGI: > 100 µM

## Nc1cc2c3ccccc3ccc2c2ccccc12
MDA-MB-231 breast
  GI50: 7.36 µM
  TGI: > 100 µM
RXF 393 renal
  GI50: > 100000 nM
  TGI: > 100 µM
NCI/ADR-RES ovarian
  GI50: > 93700 nM
  TGI: > 100 µM
DU-145 prostate
  GI50: > 87400 nM
  TGI: > 100 µM
M14 melanoma
  GI50: > 100000 nM
  TGI: > 100 µM
NCI-H522 lung
  GI50: > 100000 nM
  TGI: > 100 µM
SF-539 CNS
  GI50: > 51.2 µM
  TGI: > 100 µM
SF-268 CNS
  GI50: > 100 µM
  TGI: > 100 µM
786-0 renal
  GI50: > 100000 nM
  TGI: > 100 µM

## COc1ccc(-c2oc(C=Nc3ccccc3)c([N+](=O)[O-])c2-c2ccc(OC)c(OC)c2)cc1OC
RXF 393 renal
  TGI: > 100 µM
M14 melanoma
  TGI: > 100 µM
NCI-H522 lung
  TGI: > 100 µM
SF-539 CNS
  TGI: > 100 µM
SF-268 CNS
  TGI: > 100 µM
786-0 renal
  TGI: > 100 µM

## O=c1[nH]c(C2CCCCC2)nc2ccc(Cl)cc12
RXF 393 renal
  TGI: > 100 µM
EKVX NSCLC
  TGI: > 100 µM
SF-539 CNS
  TGI: > 100 µM
SF-268 CNS
  TGI: > 100 µM
786-0 renal
  TGI: > 100 µM

## O=C1/C(=C/c2ccc(C(=O)O)cc2)CNC/C1=C\c1ccc(C(=O)O)cc1
RXF 393 renal
  TGI: > 100 µM
M14 melanoma
  TGI: > 100 µM
SF-539 CNS
  TGI: > 100 µM
SF-268 CNS
  TGI: > 100 µM
786-0 renal
  TGI: > 100 µM

## COC1C[C@H](O[C@@H]2C[C@H](O[C@@H]3C[C@H](O[C@@H]4C(=O)c5c(cc6cc(O[C@H]7C[C@@H](O[C@H]8C[C@@H](O)[C@H](O)C(C)O8)[C@H](O)C(C)O7)c(C)c(O)c6c5O)C[C@H]4C(OC)C(=O)[C@@H](O)[C@@H](C)O)OC(C)[C@H]3O)OC(C)[C@@H]2O)OC(C)[C@@H]1O (some centres not stated)
RXF 393 renal
  GI50: 94 nM
  TGI: 0.525 µM
NCI/ADR-RES ovarian
  GI50: > 32500 nM
  TGI: > 32.5 µM
EKVX NSCLC
  GI50: 122 nM
  TGI: 10.3 µM
DU-145 prostate
  GI50: 125 nM
  TGI: > 32.5 µM
M14 melanoma
  GI50: 191 nM
  TGI: 2.15 µM
NCI-H522 lung
  GI50: 69.6 nM
  TGI: 0.265 µM
SF-539 CNS
  GI50: 0.0736 µM
  TGI: 0.316 µM
SF-268 CNS
  GI50: 0.0864 µM
  TGI: > 32.5 µM
786-0 renal
  GI50: 116 nM
  TGI: > 32.5 µM

## c1ccc2cc(Cn3c(-c4cccc5ccccc45)[n+](Cc4ccc5ccccc5c4)c4c5ccccc5c5ccccc5c43)ccc2c1
NCI/ADR-RES ovarian
  GI50: 1770 nM
  TGI: 4.71 µM
EKVX NSCLC
  GI50: 268 nM
  TGI: 1.66 µM
DU-145 prostate
  GI50: 413 nM
  TGI: 1.68 µM
786-0 renal
  GI50: 308 nM
  TGI: 1.7 µM

## CC#CC#C/C=C1/C=CC2(CCCCO2)O1 (configuration not stated)
MDA-MB-231 breast
  TGI: > 100 µM
NCI/ADR-RES ovarian
  TGI: > 100 µM
EKVX NSCLC
  TGI: > 100 µM
DU-145 prostate
  TGI: > 100 µM
M14 melanoma
  TGI: > 100 µM
NCI-H522 lung
  TGI: > 100 µM
SF-539 CNS
  TGI: > 100 µM
SF-268 CNS
  TGI: > 100 µM
786-0 renal
  TGI: > 100 µM

## CN1C(=O)CC(CC(=O)C2CCCCC2=O)CC1=O (configuration not stated)
RXF 393 renal
  TGI: > 100 µM
EKVX NSCLC
  TGI: > 100 µM
M14 melanoma
  TGI: > 100 µM
NCI-H522 lung
  TGI: > 100 µM
SF-539 CNS
  TGI: > 100 µM
SF-268 CNS
  TGI: > 100 µM
786-0 renal
  TGI: > 100 µM
